Series [1] can be described thus: physchem. As to conditions: 25 °C. The source says:
Fine and highly monodispersed coloring particles intended according to aspects of the present invention may contain a dye hardly soluble in the water contained in the second liquid described later. […] The solubility parameter of the dye, however, may vary depending on the pH of the water containing it.
The solubility parameter used according to aspects of the present invention can be calculated by measuring the degree of water solubility (mol/L) of the dye by any known experimental method and then substituting the measurement into equation (1). […] For dyes such as metal complex dyes and salt dyes, the metal or salt is first removed, and then the degree of solubility is calculated using ACD/Structure Design Suite and the solubility parameter is calculated from the value.

The conditions of series [2]: in water; cited from earlier work.

Molecules are shown by their SMILES. Values after ≈ are worked out from the molar mass of the structure shown. Bounds are passed on as bounds.

By solubility is commonly meant the concentration that dissolves in the medium under given conditions. Regarding `CC1(C)Nc2cccc3c(/N=N/c4ccc(/N=N/c5ccccc5)c5ccccc45)ccc(c23)N1` [dye 1], the solubility in series [1] (pH 6, aqueous buffer) was at most 0.631 nM.
With `Cc1cc(Br)c(Nc2ccc(O)c3c2C(=O)c2ccccc2C3=O)c(Br)c1` [dye 4], the solubility was 0.794 nM (≈ 0.387 ng/mL) in series [1] (pH 6, aqueous buffer) and 813 nM (≈ 396 ng/mL) in series [1] (pH 11, aqueous buffer).
Turning to `CCCCCCCCCCCCOS(=O)(=O)[O-].[Na+]` [sodium dodecyl sulfate], the Critical micelle concentration in series [2] is recorded as 0.0025 g/mL.
For `Cc1cccc(Nc2cccc3c2C(=O)c2cccc(Nc4cccc(C)c4)c2C3=O)c1` [dye 2], the solubility in series [1] (pH 6, aqueous buffer) was at most 0.631 nM.

Values taken from patent US20120190788A1, “COLORING PARTICLES” (CANON KABUSHIKI KAISHA, priority 2011, published 2012).
